≈ marks a conversion by molar mass, not a printed value.
Tests used:
[1] = tested on: Staphylococcus aureus ATCC 29213 (MSSA); experiment: Broth microdilution MIC, S. aureus ATCC 29213; assay type: cell-based; conditions: Staphylococcus aureus ATCC 29213 (MSSA); for MIC: read-out: MIC S. a. 29213
Description: (§1) Compounds were evaluated for antimicrobial activity against a panel of bacterial strains using a broth microdilution assay performed as recommended by the NCCLS (NCCLS (National Committee for Clinical Laboratory Standards). 1993. Methods for dilution antimicrobial susceptibility tests for bacteria that grow aerobically. NCCLS Document M7-A3, 1993. In: NCCLS Antimicrobial Susceptibility Testing, 3rd Ed.)
(§2) The minimum inhibitory concentration (MIC) is defined as the lowest concentration of a compound that prevents the growth of the bacteria.

[2] = tested on: Enterococcus faecalis ATCC 29212; experiment: Broth microdilution MIC, E. faecalis ATCC 29212; assay type: cell-based; conditions: Enterococcus faecalis ATCC 29212; for MIC: ATCC29212, read-out: MIC E. f. 29212
Description: as §1, §2

[3] = tested on: Enterococcus faecium ATCC 35667; experiment: Broth microdilution MIC, E. faecium ATCC 35667; assay type: cell-based; conditions: Enterococcus faecium ATCC 35667; for MIC: ATCC35667, read-out: MIC E. f. 35667
Description: as §1, §2

[4] = tested on: Staphylococcus aureus 76 (MRSA, β-lactamase producing); experiment: Broth microdilution MIC, S. aureus 76; assay type: cell-based; conditions: Staphylococcus aureus 76 (MRSA, β-lactamase producing); for MIC: read-out: MIC S. a. 76
Description: as §1, §2

[5] = tested on: Staphylococcus aureus COL (MRSA, non-β-lactamase producing); experiment: Broth microdilution MIC, S. aureus COL; assay type: cell-based; conditions: Staphylococcus aureus COL (MRSA, non-β-lactamase producing); for MIC: read-out: MIC S. a. COL
Description: as §1, §2

[6] = tested on: Staphylococcus aureus Smith (MSSA); experiment: Broth microdilution MIC, S. aureus Smith; assay type: cell-based; conditions: Staphylococcus aureus Smith (MSSA); for MIC: read-out: MIC S. a. Smith
Description: as §1, §2

[7] = Human serum binding by ultrafiltration; assay type: in vitro ADME
Description: Binding of several representative compounds of this invention in pooled human serum was determined using ultrafiltration. Compounds were incubated in serum for 10 minutes at 37° C. in a shaking water bath. Serum ultrafiltrate was accomplished by centrifugation (Amicon Centrifree) for 20 minutes at 25° C. Compound content in the ultrafiltrate was quantified by HPLC. An ultrafilrate obtained by following the same procedure with no added compound was used as a standard.

MIC S. a. 29213 [1] [µg/mL] | MIC E. f. 29212 [2] [µg/mL] | MIC E. f. 35667 [3] [µg/mL] | MIC S. a. 76 [4] [µg/mL] | MIC S. a. COL [5] [µg/mL] | MIC [1] [µg/mL] | MIC [2] [µg/mL] | MIC [3] [µg/mL] | MIC [4] [µg/mL] | MIC [5] [µg/mL] | MIC [6] [µg/mL] | MIC S. a. Smith [6] [µg/mL] | SMILES | HSB, human serum binding [7] [%]
0.5 (≈ 0.876 µM) | >32 | 32 (≈ 56.1 µM) | 16 (≈ 28 µM) | 16 (≈ 28 µM) | – | – | – | – | – | – | – | CON=C(C(=O)NC1C(=O)N2C(C(=O)O)=C(Sc3ccccc3Br)CSC12)c1csc(N)n1 (stereo not shown) [Compound 5] | –
<0.015 | 16 (≈ 28 µM) | 16 (≈ 28 µM) | 32 (≈ 56.1 µM) | – | – | – | – | – | – | – | – | CON=C(C(=O)NC1C(=O)N2C(C(=O)O)=C(Sc3ccc(Br)cc3)CSC12)c1csc(N)n1 (stereo not shown) [Compound 6] | –
<0.25 | – | 2 (≈ 3.31 µM) | 4 (≈ 6.63 µM) | 2 (≈ 3.31 µM) | – | – | – | – | – | – | – | Nc1nc(C(=NO)C(=O)NC2C(=O)N3C(C(=O)O)=C(Sc4ccccc4I)CSC23)cs1 (stereo not shown) [Compound 7] | –
1 (≈ 1.62 µM) | – | 32 (≈ 51.8 µM) | 32 (≈ 51.8 µM) | 32 (≈ 51.8 µM) | – | – | – | – | – | – | – | CON=C(C(=O)NC1C(=O)N2C(C(=O)O)=C(Sc3ccccc3I)CSC12)c1csc(N)n1 (stereo not shown) [Compound 8] | –
<0.25 | 2 (≈ 2.98 µM) | 2 (≈ 2.98 µM) | 2 (≈ 2.98 µM) | 1 (≈ 1.49 µM) | – | – | – | – | – | – | – | Nc1nc(/C(=N/OC2CCCC2)C(=O)N[C@@H]2C(=O)N3C(C(=O)O)=C(Sc4ccccc4I)CS[C@H]23)cs1 [Compound 9] | –
0.5 (≈ 0.903 µM) | 2 (≈ 3.61 µM) | 2 (≈ 3.61 µM) | 8 (≈ 14.4 µM) | 4 (≈ 7.22 µM) | – | – | – | – | – | – | – | Nc1nc(C(=NO)C(=O)NC2C(=O)N3C(C(=O)O)=C(Sc4ccccc4-c4ccccc4)CSC23)cs1 (stereo not shown) [Compound 10] | –
1 (≈ 1.75 µM) | 8 (≈ 14 µM) | 8 (≈ 14 µM) | 8 (≈ 14 µM) | 4 (≈ 7.01 µM) | – | – | – | – | – | – | – | N#Cc1ccccc1SC1=C(C(=O)O)N2C(=O)[C@@H](NC(=O)/C(=N\OC3CCCC3)c3csc(N)n3)[C@H]2SC1 [Compound 12] | –
– | – | – | – | – | 1 (≈ 1.7 µM) | 32 (≈ 54.3 µM) | 16 (≈ 27.1 µM) | 16 (≈ 27.1 µM) | 8 (≈ 13.6 µM) | – | – | Nc1nc(/C(=N/OCCF)C(=O)N[C@@H]2C(=O)N3C(C(=O)O)=C(Sc4ccnn4-c4ccccc4)CS[C@H]23)cs1 [Compound 14] | –
– | – | – | – | – | 1 (≈ 1.84 µM) | 2 (≈ 3.68 µM) | 8 (≈ 14.7 µM) | 32 (≈ 58.9 µM) | 16 (≈ 29.4 µM) | – | – | Nc1nc(/C(=N/O)C(=O)N[C@@H]2C(=O)N3C(C(=O)O)=C(Sc4ccnn4-c4ccccc4)CS[C@H]23)cs1 [Compound 15] | –
– | – | – | – | – | 0.5 (≈ 0.801 µM) | 1 (≈ 1.6 µM) | 4 (≈ 6.41 µM) | 4 (≈ 6.41 µM) | 2 (≈ 3.2 µM) | 0.5 (≈ 0.801 µM) | – | Nc1nc(/C(=N/OCCF)C(=O)N[C@@H]2C(=O)N3C(C(=O)O)=C(Sc4ccnn4-c4ccccc4)CS[C@H]23)c(Cl)s1 [Compound 16] | –
– | – | – | – | – | 1 (≈ 1.67 µM) | 2 (≈ 3.33 µM) | 16 (≈ 26.7 µM) | 16 (≈ 26.7 µM) | 8 (≈ 13.3 µM) | 1 (≈ 1.67 µM) | – | CC(C)(C)O/N=C(\C(=O)N[C@@H]1C(=O)N2C(C(=O)O)=C(Sc3ccnn3-c3ccccc3)CS[C@H]12)c1csc(N)n1 [Compound 18] | –
– | – | – | – | – | 1 (≈ 1.71 µM) | 32 (≈ 54.8 µM) | 32 (≈ 54.8 µM) | 16 (≈ 27.4 µM) | 8 (≈ 13.7 µM) | 0.5 (≈ 0.857 µM) | – | C=CCO/N=C(\C(=O)N[C@@H]1C(=O)N2C(C(=O)O)=C(Sc3ccnn3-c3ccccc3)CS[C@H]12)c1csc(N)n1 [Compound 20] | –
0.5 (≈ 0.969 µM) | 1 (≈ 1.94 µM) | 16 (≈ 31 µM) | 32 (≈ 62 µM) | 16 (≈ 31 µM) | – | – | – | – | – | – | 0.125 (≈ 0.242 µM) | Cn1ccnc1SC1=C(C(=O)O)N2C(=O)[C@@H](NC(=O)/C(=N\O)c3nc(N)sc3Cl)[C@H]2SC1 [Compound 31] | –
1 (≈ 1.87 µM) | 1 (≈ 1.87 µM) | 4 (≈ 7.49 µM) | 8 (≈ 15 µM) | 4 (≈ 7.49 µM) | – | – | – | – | – | – | 0.5 (≈ 0.936 µM) | Cc1nnc(SC2=C(C(=O)O)N3C(=O)[C@@H](NC(=O)/C(=N\O)c4nc(N)sc4Cl)[C@H]3SC2)s1 [Compound 33] | –
– | – | – | – | – | 0.25 (≈ 0.442 µM) | 0.25 (≈ 0.442 µM) | 1 (≈ 1.77 µM) | 1 (≈ 1.77 µM) | 1 (≈ 1.77 µM) | – | – | CSc1nnc(SC2=C(C(=O)O)N3C(=O)[C@@H](NC(=O)C(=NO)c4nc(N)sc4Cl)C3SC2)s1 (stereo partly drawn) [Compound 44, (7R)-7-[2-(2-Amino-5-chlorothiazol-4-yl)-2-hydroxyiminoacetylamino]-3-(5-methylsulfanyl-[1,3,4]thiadiazol-2-ylsulfanyl)-8-oxo-5-thia-1-aza-bicyclo[4.2.0]oct-2-ene-2-carboxylic acid] | –
– | – | – | – | – | 0.5 (≈ 0.965 µM) | 0.125 (≈ 0.241 µM) | 0.5 (≈ 0.965 µM) | 4 (≈ 7.72 µM) | 4 (≈ 7.72 µM) | 1 (≈ 1.93 µM) | – | Cc1noc(SC2=C(C(=O)O)N3C(=O)[C@@H](NC(=O)C(=NO)c4nc(N)sc4Cl)C3SC2)n1 (stereo partly drawn) [Compound 45, (7R)-7-[2-(2-Amino-5-chlorothiazol-4-yl)-2-hydroxyiminoacetylamino]-3-(3-methyl-[1,2,4]oxadiazol-5-ylsulfanyl)-8-oxo-5-thia-1-aza-bicyclo[4.2.0]oct-2-ene-2-carboxylic acid] | –
– | – | – | – | – | 0.125 (≈ 0.234 µM) | 0.125 (≈ 0.234 µM) | 0.5 (≈ 0.935 µM) | 1 (≈ 1.87 µM) | 0.5 (≈ 0.935 µM) | 0.25 (≈ 0.467 µM) | – | Nc1nsc(SC2=C(C(=O)O)N3C(=O)[C@@H](NC(=O)C(=NO)c4nc(N)sc4Cl)C3SC2)n1 (stereo partly drawn) [Compound 47, (7R)-7-[2-(2-Amino-5-chlorothiazol-4-yl)-2-hydroxyiminoacetylamino]-3-(3-amino-[1,2,4]thiadiazol-5-ylsulfanyl)-8-oxo-5-thia-1-aza-bicyclo[4.2.0]oct-2-ene-2-carboxylic acid] | –
– | – | – | – | – | 0.25 (≈ 0.496 µM) | 0.25 (≈ 0.496 µM) | 1 (≈ 1.98 µM) | 2 (≈ 3.97 µM) | 2 (≈ 3.97 µM) | – | – | Nc1nc(C(=NO)C(=O)N[C@@H]2C(=O)N3C(C(=O)O)=C(Sc4nnco4)CSC23)c(Cl)s1 (stereo partly drawn) [Compound 48, (7R)-7-[2-(2-Amino-5-chlorothiazol-4-yl)-2-hydroxyiminoacetylamino]-3-([1,3,4]oxadiazol-2-ylsulfanyl)-8-oxo-5-thia-1-aza-bicyclo[4.2.0]oct-2-ene-2-carboxylic acid] | –
– | – | – | – | – | 0.25 (≈ 0.499 µM) | 0.5 (≈ 0.999 µM) | 1 (≈ 2 µM) | 8 (≈ 16 µM) | 4 (≈ 7.99 µM) | – | – | Nc1nc(C(=NO)C(=O)N[C@@H]2C(=O)N3C(C(=O)O)=C(Sc4nnc(N)s4)CSC23)cs1 (stereo partly drawn) [Compound 49, 3-(5-Amino-[1,3,4]thiadiazol-2-ylsulfanyl)-(7R)-7-[2-(2-aminothiazol-4-yl)-2-hydroxyiminoacetylamino]-8-oxo-5-thia-1-aza-bicyclo[4.2.0]oct-2-ene-2-carboxylic acid] | –
– | – | – | – | – | 0.25 (≈ 0.514 µM) | 1 (≈ 2.06 µM) | 2 (≈ 4.11 µM) | 8 (≈ 16.4 µM) | 4 (≈ 8.22 µM) | – | – | Nc1nc(C(=NO)C(=O)N[C@@H]2C(=O)N3C(C(=O)O)=C(Sc4nncs4)CSC23)ns1 (stereo partly drawn) [Compound 50, (7R)-7-[2-(5-Amino-[1,2,4]thiadiazol-3-yl)-2-hydroxyiminoacetylamino]-8-oxo-3-([1,3,4]thiadiazol-2-ylsulfanyl)-5-thia-1-aza-bicyclo [4.2.0]oct-2-ene-2-carboxylic acid] | –
– | – | – | – | – | 0.125 (≈ 0.265 µM) | 2 (≈ 4.24 µM) | 4 (≈ 8.48 µM) | 16 (≈ 33.9 µM) | 4 (≈ 8.48 µM) | 0.06 (≈ 0.127 µM) | – | Nc1nc(CC(=O)N[C@@H]2C(=O)N3C(C(=O)O)=C(Sc4nnc(N)s4)CSC23)cs1 (stereo partly drawn) [Compound 51, 3-(5-Amino-[1,3,4]thiadiazol-2-ylsulfanyl)-(7R)-7-[2-(2-amino-thiazol-4-yl)-acetylamino]-8-oxo-5-thia-1-aza-bicyclo[4.2.0]oct-2-ene-2-carboxylic acid] | –
– | – | – | – | – | 0.25 (≈ 0.451 µM) | 0.25 (≈ 0.451 µM) | 1 (≈ 1.8 µM) | 2 (≈ 3.61 µM) | 1 (≈ 1.8 µM) | – | – | Nc1nc(C(=NO)C(=O)N[C@@H]2C(=O)N3C(C(=O)O)=C(Sc4nc(Cl)ns4)CSC23)c(Cl)s1 (stereo partly drawn) [Compound 52, (7R)-7-[2-(2-Amino-5-chlorothiazol-4-yl)-2-hydroxyiminoacetylamino]-3-(3-chloro-[1,2,4]thiadiazol-5-ylsulfanyl)-8-oxo-5-thia-1-aza-bicyclo[4.2.0]oct-2-ene-2-carboxylic acid] | –

SMILES | MIC S. a. 29213 [1] [µg/mL] | MIC E. f. 29212 [2] [µg/mL] | MIC E. f. 35667 [3] [µg/mL] | MIC S. a. 76 [4] [µg/mL] | MIC S. a. COL [5] [µg/mL] | MIC [1] [µg/mL] | MIC [2] [µg/mL] | MIC [3] [µg/mL] | MIC [4] [µg/mL] | MIC [5] [µg/mL] | MIC [6] [µg/mL] | MIC S. a. Smith [6] [µg/mL] | HSB, human serum binding [7] [%]
NC(=O)NCCSCc1cnccc1SC1=C(C(=O)O)N2C(=O)[C@@H](NC(=O)/C(=N\O)c3nc(N)sc3Cl)[C@H]2SC1 [Compound 30] | 0.5 (≈ 0.775 µM) | 0.125 (≈ 0.194 µM) | – | 4 (≈ 6.2 µM) | 4 (≈ 6.2 µM) | – | – | – | – | – | – | 0.5 (≈ 0.775 µM) | 96
